Earlier results, collected in US11213557B2, “Lactobacillus plantarum CCFM1019, fermented foods thereof, and application thereof in preparation of medicine for promoting excretion of plasticizers and metabolites thereof from body” (priority 2018, dated 2022).

[1] = human body, 24 h after DEHP enters the body

For `CCCCC(CC)COC(=O)c1ccccc1C(=O)OCC(CC)CCCC` (centres unmarked) [DEHP, bis(2-ethylhexyl) phthalate], the Half-life (DEHP stored in adipose tissue) is listed as 156 h, the “Absorption and distribution period” value (human body) is listed as 4 to 8 h and the “Time within which most of the DEHP is completely metabolized” value (human body) is listed as ≤ 24 h. The “DEHP converted into five secondary metabolites and excreted in urine” value [1] was “about 67%” and the “DEHP directly excreted in urine” value [1] was “less than 10%”.
